These results are taken from patent US6773727B1, “Use of gossypol and related terpenes for control of urban and agricultural pests” (The United States of America as represented by the …, priority 2001, dated 2004).

Like-named read-outs stand apart in the source and are kept apart here.

Data set [1] deals with tobacco budworm (Heliothis virescens [F.]) larvae. The following applies: cited from earlier work; for effect on growth: at 2.5 μmoles/g diet; for effective dosage required to reduce by 50% the growth of larvae: larvae fed an artificial diet.
The test system of data set [2] is tobacco budworm larval growth. The following applies: in vivo; cited from earlier work.
For data set [3] the following is noted: as recommended by manufacturers; pest not stated; cited from earlier work.
The subject of another data set is roaches. The note with it: as recommended by manufacturers; cited from earlier work.
Another data set relates to termites. Briefly: Termite lab colony bait matrix test (time to 100% mortality). The data set is classed as in vivo, Formosan subterranean termite. How it is done:
Gossypol acetic acid complex, which is a commercially available pure chemical, is dissolved in 1 ml acetone (#9006-03; J. T. Baker, Phillipsburg, NJ) using a sterile container. In the pure form as gossypol acetic acid complex and at concentrations of 5 ppm, gossypol is effective when mixed with a chitin synthesis inhibitor of the benzophenyl urea family or microbes such as fungi, bacteria, or viruses, taking a mean time to kill the lab test of four months. At concentrations greater than 500 ppm, without the addition of any other chemical, gossypol acetic acid complex as an insecticide can kill the lab test colony after a mean duration of one month.
Gossypol-acetic acid complex obtained from USDA-ARS-SRCC, New Orleans, La., crude cotton seed oil [8ETX(5)], from a commercial oil mill, and a commercial cotton meal [6MTN 925 CSM] were separately incorporated into a bait matrix as described in U.S. patent application Ser. No. 09/294,499 filed Apr. 20, 1999, at concentrations of 50, 25, and 12.5 ppm respectively. […] A total of 40 mg of the gossypol acetic acid complex, 250 mg of the crude cotton seed oil, and 900 mg of the cotton seed meal were individually weighed using a Mettler balance (model PB303; Fisher Scientific, Pittsburgh, Pa.). The gossypol-acetic acid complex was placed into a 50 ml sterile screw cap conical tube (#62.547.004; Sarstedt, Newton, N.C.) and dissolved with 1 ml acetone (#9006-03; J. T. Baker, Phillipsburg, N.J.).
Under a laminar flow hood, the gossypol acetone solution was mixed with 40 ml of sterile nutritional supplement containing 150 ppm of chitin inhibitors (prepared as reported by Rojas, M. G. and Morales-Ramos, J. A., Apr. 2001, “Bait matrix for delivery of chitin synthesis inhibitors to the Formosan subterranean termite [Isoptera: Rhinotermitidae],” J. Econ. Entomol. 94(2):506-510). The tube was tightly closed with a screw cap and manually shaken for 30 seconds. The mixture was added to 100 g of sterile cellulose as reported by Rojas and Morales-Ramos (2001) supra. The cotton seed oil was mixed with 300 ml of supplement and mixed with the sterile cellulose. The cotton seed meal was mixed and homogenized with the sterile cellulose, and then the 300 ml nutritional supplement was added. Each mixture was manually homogenized using a stainless steel spatula.
The mixtures were prepared as reported above for gossypol-chitin inhibitors, but without the addition of the chitin inhibitors. The fungal spores (400 mg) (Bio-Blast, EcoScience, Orlando, Fla.) were homogenized with the sterile cellulose, then the 300 ml of supplement gossypol-containing solution was added.
To encase the bait matrix, tubes made of fibrous casing material (#124B; L. E. M. Products, Inc., Miamitown, Ohio) were cut into 150 mm long portions as reported by Rojas and Morales-Ramos (2001) supra. Fifty grams of bait matrix containing a mixture of a single gossypol source and a single chitin synthesis inhibitor, or single gossypol source and fungal spores, were compacted into one end of the inlet tube, at which point the open end of the inlet tube was closed with a rubber band. The bait casing was placed inside of the foraging box adjacent to a 10 g piece of pine wood, taking care that they were partially covered with the sand. […]
All the experimental boxes were maintained under dark at 29±2° C., and 75±2% relative humidity. […] The time to reach 100% mortality was measured and recorded. […]

For another data set, the system named is protease. The following applies: cotton leafworm (S. littoralis); cited from earlier work.
Data set [4] relates to Spiny bollworm (Earias insulana Boisduval). The note with it: cited from earlier work.
The next data set has as its system amylase. The following applies: cotton leafworm (S. littoralis); cited from earlier work.
The test system of another data set is invertase. The note with it: cotton leafworm (S. littoralis); cited from earlier work.
The test system of data set [5] is tobacco budworm neonate larvae. The following applies: nine days, cited from earlier work.
A further data set relates to tobacco budworms. The note with it: cited from earlier work.
The test system of data set [6] is cotton leafworm (Spodoptera littoralis [Boisduval]). The note with it: cited from earlier work.
In the next data set the test system is bollworms. The note with it: 0.15% gossypol in an artificial diet; regular diet 54.5%; cited from earlier work.
The subject of data set [7] is silverleaf whitefly (Bemisia argentifolii Bellows and Perring). The following applies: in vivo; cited from earlier work.
Another data set has as its system ants. The following applies: as recommended by manufacturers; cited from earlier work.
Another data set has as its system subterranean termites. The following applies: as recommended by manufacturers; cited from earlier work.

`COc1c(O)c(C=O)c2c(c1C(C)C)C(=O)C(C)=CC2=O` [Hemigossypolone-6-methyl ether]: the effect on growth entry in [1] is on record as “no effect on growth”.

Turning to `C=C1CC[C@H]2O[C@]2(C)CC[C@@H]2[C@@H]1CC2(C)C` [caryophyllene oxide], in data set [2], the “interaction with gossypol in retarding larval growth” value is listed as “interacts synergistically”.

On to `O=C(NC(=O)c1c(F)cccc1F)Nc1cc(Cl)c(Oc2ncc(C(F)(F)F)cc2Cl)c(Cl)c1` [chlorfuazuron], for which, in data set [3], the lethal amount result is listed as “about 0.5%”.

On to `O=C(NC(=O)c1c(F)cccc1F)Nc1ccc(Cl)cc1` [diflubenzuron], for which the lethal amount result in [3] is recorded as “about 0.250%”.

`N#Cc1nn(-c2c(Cl)cc(C(F)(F)F)cc2Cl)c(N)c1[S+]([O-])C(F)(F)F` (stereo not drawn) [fipronil]: the lethal amount entry in the data set on roaches is given as “about 0.05%”.

As to `CC(=O)O.Cc1cc2c(C(C)C)c(O)c(O)c(C=O)c2c(O)c1-c1c(C)cc2c(C(C)C)c(O)c(O)c(C=O)c2c1O` [gossypol acetic acid complex, Gossypol acetic acid complex], the “mean time to kill the lab test” value in the data set with termites (5 ppm, mixed with a chitin synthesis inhibitor of the benzophenyl urea family or microbes) is “four”. Also, in the data set with termites (500 ppm, not mixed with any other chemicals, fungi, or bacteria), the “time to mortality of a 1000-worker colony” value was “about 2.5 weeks”. Besides, the “mean duration to kill the lab test colony” value in the data set on termites (concentrations greater than 500 ppm, without any other chemical) is on record as “one”. Besides, in the data set on termites (preliminary results, doses from 5 to 500 ppm, mortality in about two months, no signs of repellency), the “dose sufficient to weaken the termites and allow other chemicals or microorganisms to induce mortality” value came out at 100 ppm.

As to `Cc1cc2c(C(C)C)c(O)c(O)c(C=O)c2c(O)c1-c1c(C)cc2c(C(C)C)c(O)c(O)c(C=O)c2c1O` [gossypol], in the data set on termites (gossypol with the chitin inhibitor in bait matrix, control boxes (no gossypol) still alive), the “time until experimental colonies were dead” value was “about two”. Besides, in the data set on protease, the protease activity result is given as “inhibits”. The values for the pupated in [4] (bolls containing 0.58% gossypol) and in data set [4] (bolls containing 2.34% gossypol) were 45% and 9%, respectively. In addition, in the data set on amylase, the amylase activity result is given as “inhibits”. Besides, the invertase activity entry in the data set on invertase is “does not affect”. Besides, the “effective dosage required to reduce by 50% the growth of larvae” value in data set [1] is 0.8 μmoles/g diet. Also, in data set [5] (0.02% gossypol in artificial diet), the “larval size relative to control” value is recorded as 98%. Moreover, the “larval weight relative to controls” value in data set [5] (0.06% gossypol in the diet) is 63%; in data set [5] (0.2% gossypol in the diet), 13%. In addition, in the data set on tobacco budworms (gossypol 0.30%, 5- and 8-day-old larvae), the food consumption result is listed as “impaired”. The figures for the food utilization entry with tobacco budworms (gossypol at the 0.15% level) and in the data set with bollworms were “did not measurably affect food utilization” and 42.5%, respectively. Also, the mortality (as a rule, the share of the test organisms that died) in data set [6] (0.5% gossypol in the diet, after 10 days) is recorded as approximately 70%; in [7] it was “did not affect”. Further, the larvae eventually pupated in data set [6] (0.5% gossypol in the diet) was 0.3%. The feeding result in data set [6] (1.0% gossypol in the diet) is listed as “strongly suppressed feeding”. The honeydew production entry in data set [7] is “did not affect”.

With `COc1c(O)c(C=O)c2c(c1C(C)C)C(=O)C1(C)CC=C(C)C(CC=C(C)C)C1C2=O` (stereo not drawn) [heliocide B1], in [1], the “effective dosage required to reduce by 50% the growth of larvae” value was 4.6 μmoles/g diet.

With `COc1c(O)c(C=O)c2c(c1C(C)C)C(=O)C1(C)CC=C(CCC=C(C)C)CC1C2=O` (stereo not drawn) [heliocide B2], the effect on growth result in data set [1] is on record as “no effect on growth”.

Consider `COc1c(O)c(C=O)c2c(c1C(C)C)C(=O)C1(C)CC(CCC=C(C)C)=CCC1C2=O` (stereo not drawn) [heliocide B3], for which the effect on growth entry in [1] is recorded as “no effect on growth”.

In the case of `CC(C)=CCC1C(C)=CCC2(C)C(=O)c3c(c(C=O)c(O)c(O)c3C(C)C)C(=O)C12` (stereo not drawn) [heliocide H1], in [1], the “effective dosage required to reduce by 50% the growth of larvae” value is on record as 2.5 μmoles/g diet.

Turning to `CC(C)=CCCC1=CC[C@]2(C)C(=O)c3c(c(C=O)c(O)c(O)c3C(C)C)C(=O)[C@@H]2C1` [heliocide H2], the “effective dosage required to reduce by 50% the growth of larvae” value in data set [1] is recorded as 11.2 μmoles/g diet.

Regarding `CC(C)=CCCC1=CC[C@H]2C(=O)c3c(C=O)c(O)c(O)c(C(C)C)c3C(=O)[C@@]2(C)C1` [heliocide H3], in [1], the “effective dosage required to reduce by 50% the growth of larvae” value was 3.9 μmoles/g diet.

As for `CC1=CC(=O)c2c(C=O)c(O)c(O)c(C(C)C)c2C1=O` [hemigossypolone], the “effective dosage required to reduce by 50% the growth of larvae” value in data set [1] was 10.5 μmoles/g diet.

In the case of `O=C(NC(=O)c1c(F)cccc1F)Nc1cc(Cl)c(OC(F)(F)C(F)F)c(Cl)c1` [hexaflumuron], the lethal amount entry in data set [3] is on record as “about 0.5%”.

For `CC1(C)CNC(=NN=C(/C=C/c2ccc(C(F)(F)F)cc2)/C=C/c2ccc(C(F)(F)F)cc2)NC1` [hydramethylnon], the lethal amount result in the data set with ants was “about 1.0%”; in the data set on subterranean termites it was “about 0.030%”.

With `O=[N+]([O-])NC1=NCCN1Cc1ccc(Cl)nc1` [imidacloprid], the lethal amount entry in the data set with roaches is “about 2.15%”.

As for caryophyllene, in [2], the “interaction with gossypol in retarding larval growth” value is listed as “does not act synergistically”.
